Laboratory results from publication PMC4486092 (Clinical Pharmacokinetics, 2015).

Tests used:
[1] = Population pharmacokinetic analysis of linagliptin plasma concentrations; format: in vivo, human (patients with T2DM)
[2] = not estimated, fixed to estimates of the previous model ref 15; cited from earlier work
[3] = single rising-dose study, healthy volunteers, up to a dose of 600 mg ref 5; cited from earlier work

- change in exposure, combination of covariate effects (largest decrease) ([1]; 5 mg, person, 117 kg, GGT 9.4 U/L, pre-dose DPP-4 activity 8,025 RFU): −26%
- increase in linagliptin exposure, impact of weight ([1]; 5th percentile of weight): 5.9%
- increase in linagliptin exposure with age ([1]; 73-year-old vs 42-year-old patient (95th and 5th percentile of age)): 13.8%
- decrease in linagliptin exposure, impact of weight ([1]; 95th percentile of weight): 8.7%
- Weight_F: percentage change in F per kg change from median weight of population ([1]; covariate effect, median weight 88 kg, final model): −0.958
- Dose_Ka: percentage change in Ka per dose unit change from the 5 mg dose group ([1]; covariate effect, final model): −6.51
- CL/F: typical clearance of the unbound concentration ([1]; final model): 258 L/h
- πF: intra-individual variability in relative bioavailability ([1]; final model): 40.0 CV %
- ωCL: inter-individual variability in clearance of the unbound concentration ([1]; final model): 27.5 CV %
- ωF: inter-individual variability in relative bioavailability ([1]; final model): 47.4 CV %
- ωKa: inter-individual variability in the absorption rate constant ([1]; final model): 76.4 CV %
- ωVC: inter-individual variability in the central volume of distribution ([1]; final model): 24.4 CV %
- Vd/F ([1]; human, in vivo): 715 L
- Ka,1: typical absorption rate constant study 1 ([1]; powder in bottle formulation, oral): 0.933 h⁻¹
- linear decrease in bioavailability for every 1 kg increase in weight ([1]; relative bioavailability, oral): 0.96%
- Ka,2: typical absorption rate constant study 2 ([1]; tablet formulation 1, oral): 0.795 h⁻¹
- Ka,3: typical absorption rate constant studies 3/4 ([1]; tablet formulation 2, oral): 0.441 h⁻¹
Structure (SMILES): CC#CCn1c(N2CCC[C@@H](N)C2)nc2c1c(=O)n(Cc1nc(C)c3ccccc3n1)c(=O)n2C [linagliptin, (R)-8-(3-Amino-piperidin-1-yl)-7-but-2-ynyl-3-methyl-1-(4-methyl-quinazolin-2-ylmethyl)-3,7-dihydro-purine-2,6-dione]
- VP/F: typical volume of distribution of the peripheral compartment [2]: 1,650 L
- tolerability of a single dose [3]: well tolerated
